# Assay results from patent US20050014816A1, “Thiophene amino acid derivatives, process for preparing them and pharmaceutical compositions containing them” (Pfizer Inc, priority 2003, published 2005).
# Legend:
# MMP-13 = MMP-13 (Homo sapiens, UniProt P45452); assay: MMP-12 inhibition test adapted to MMP-13; format: biochemical; details: test for MMP-12 adapted to MMP-13
# Description: The reaction starts with the sequential addition of 41 μl of FP-1 substrate (final concentration of 10 μM) to a buffer solution of 50 mM of Tris-HCl and 10 mM of CaCl2, and containing 5 mM of hydroxamic acid and 5 μl of the enzyme diluted in a 0.005% Brij-35 buffer solution. The microplates are incubated for 20 minutes at room temperature. The compounds of the invention are tested at concentrations ranging from 0.3 to 30 μM. The measurement of the amount of proteolysis of the peptide substrate is monitored by means of a measurement of absorbance at 405 nm using a microplate spectrophotometer, at room temperature. The IC50 values are calculated from curves in which the percentage of the catalytic activity relative to the control is represented on the x-axis and the inhibitor concentration is represented on the y-axis.
# The test described above for the inhibition of MMP-12 is adapted and used to determine the capacity of the compounds of formula (I) to inhibit the metalloproteases MMP-1, MMP-2, MMP-3, MMP-7, MMP-9, MMP-13 and MMP-14.
# MMP-12 = MMP-12 (Homo sapiens, UniProt P39900); assay: in vitro inhibitory activity on MMP-12 (proteolysis of FP-1 peptide substrate); format: biochemical; details: FP-1 substrate 10 μM, 20 minutes at room temperature
# Description: in vitro Evaluation of the Inhibitory Activity of the Compounds of the Invention on MMP-12:
# The inhibitory activity of the compounds of formula (I) on metalloprotease-12 is evaluated by testing the capacity of the compounds of the invention to inhibit the proteolysis of a peptide that is an MMP-12 substrate.
# The substrate peptide used (fluorigenic peptide-1: FP-1) in the test has the following sequence: Mca-Pro-Leu-Gly-Leu-Dap(Dnp)-Ala-Arg-NH2.
# The inhibitory activity of a compound of formula (I) is expressed as the IC50 value, which represents the concentration of inhibitor for which a 50% inhibition of the metalloprotease is observed.
# The reaction starts with the sequential addition of 41 μl of FP-1 substrate (final concentration of 10 μM) to a buffer solution of 50 mM of Tris-HCl and 10 mM of CaCl2, and containing 5 mM of hydroxamic acid and 5 μl of the enzyme diluted in a 0.005% Brij-35 buffer solution. The microplates are incubated for 20 minutes at room temperature. The compounds of the invention are tested at concentrations ranging from 0.3 to 30 μM. The measurement of the amount of proteolysis of the peptide substrate is monitored by means of a measurement of absorbance at 405 nm using a microplate spectrophotometer, at room temperature. The IC50 values are calculated from curves in which the percentage of the catalytic activity relative to the control is represented on the […] and the inhibitor concentration is represented on the y-axis.
# Sequence of MMP-12 (P39900 106-470): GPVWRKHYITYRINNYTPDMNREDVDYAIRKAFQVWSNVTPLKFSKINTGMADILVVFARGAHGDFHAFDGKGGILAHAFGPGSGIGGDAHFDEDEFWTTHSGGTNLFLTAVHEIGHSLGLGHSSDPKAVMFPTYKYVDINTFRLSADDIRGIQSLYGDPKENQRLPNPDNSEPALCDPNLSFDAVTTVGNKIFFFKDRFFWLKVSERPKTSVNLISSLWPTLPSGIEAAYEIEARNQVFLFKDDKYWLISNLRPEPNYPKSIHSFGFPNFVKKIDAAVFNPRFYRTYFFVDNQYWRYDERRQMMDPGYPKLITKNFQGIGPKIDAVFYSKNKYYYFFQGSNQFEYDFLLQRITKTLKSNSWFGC
Compound,IC50 (MMP-13) [µM],IC50 (MMP-12) [µM]
"O=C(O)CC(NC(=O)c1cc(-c2ccc(OC(F)(F)F)cc2)cs1)c1ccccc1 (racemic) [Example 6, {1[(4-Trifluoromethoxyphenyl)thien-2-yl]carboxamido}(phenyl)-propanoic acid]",3.6,0.42
O=C(N[C@H](C(=O)O)c1ccccc1)c1cc(-c2ccc(OC(F)(F)F)cc2)cs1 [Example 2],4.5,0.38
"O=C(N[C@@H](C(=O)O)c1ccccc1)c1cc(-c2ccc(OC(F)(F)F)cc2)cs1 [Example 4, (2R)-{[4-(4-Trifluoromethoxyphenyl)thien-2-yl]carboxamido}-(phenyl)acetic acid]",5.6,0.47
"O=C(N[C@H](Cc1ccccc1)C(=O)O)c1cc(-c2ccc(OC(F)(F)F)cc2)cs1 [Example 8, (2R)-{[4-(4-Trifluoromethoxyphenyl)thien-2-yl]carboxamido}(phenyl)-propanoic acid]",2.2,0.18
NC(=O)C[C@@H](NC(=O)c1cc(-c2ccc(OC(F)(F)F)cc2)cs1)c1ccccc1 [Example 9],0.96,0.077
"O=C(O)C[C@H](Cc1ccccc1)NC(=O)c1cc(-c2ccc(OC(F)(F)F)cc2)cs1 [Example 12, (3S)-3-{[4-(4-Trifluoromethoxyphenyl)thien-2-yl]carboxamido)-4-phenylbutanoic acid]",8.3,0.53
"O=C(N[C@H](C(=O)O)c1ccccc1)c1cc(-c2ccc(C3CCCCC3)cc2)cs1 [Example 16, (2S)-{[4-(4-cyclohexylphenyl)thien-2-yl]carboxamido}(phenyl)acetic acid]",6.5,0.54
"CC(=O)c1ccc(-c2ccc(-c3csc(C(=O)N[C@H](C(=O)O)c4ccccc4)c3)cc2)cc1 [Example 18, (2S)4-[({4-[4-(4-Acetylphenyl)phenyl]thien-2-yl}carbonyl)amino]-(phenyl)acetic acid]",0.12,0.04
CC(=O)c1ccc(-c2ccc(-c3csc(C(=O)N[C@H](CC(=O)O)c4ccccc4)c3)cc2)cc1 [Example 20],0.069,0.028
